Laboratory results: patent US20220251081A1, “HETEROBICYCLIC INHIBITORS OF MAT2A AND METHODS OF USE FOR TREATING CANCER” (priority 2019, published 2022)

Key:
[1] = test system: SAM in HCT116 human colon carcinoma cell line with deleted MTAP gene; test: Cellular assay of target engagement (SAM): SAM level by LC-MS/MS after 72 hrs; assay type: cell-based; conditions: HCT-116, IC50 score, read-out: Cell 72 h SAM Inhibition (MTAP −/−)
Summary of the method: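 MTAP-deleted HCT116 cells were seeded, then exposed 24 h later to a 10-point 3-fold compound dilution series for 72 h at 37 °C/5% CO2. They were lysed in cold 80% methanol/acetic acid containing d3-SAM internal standard. SAM was quantified by LC-MS/MS (MRM, m/z 399.2→250.1).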

MAT2A homodimer = target: T1, MAT2A homodimer (Homo sapiens, UniProt P31153); test: Biochemical assay: inhibition of recombinant MAT2A homodimer (phosphate release, PiColorLock Gold); conditions: MAT2A IC50 score; read-out: Enzyme Inhibition
T1 construct: inferred from Ni sepharose purification and imidazole elution; made in house; host or cells: Sf9 insect cells, recombinant baculovirus (Bac to Bac, pFASTBAC1 vector)
T1 sequence (P31153 whole entry): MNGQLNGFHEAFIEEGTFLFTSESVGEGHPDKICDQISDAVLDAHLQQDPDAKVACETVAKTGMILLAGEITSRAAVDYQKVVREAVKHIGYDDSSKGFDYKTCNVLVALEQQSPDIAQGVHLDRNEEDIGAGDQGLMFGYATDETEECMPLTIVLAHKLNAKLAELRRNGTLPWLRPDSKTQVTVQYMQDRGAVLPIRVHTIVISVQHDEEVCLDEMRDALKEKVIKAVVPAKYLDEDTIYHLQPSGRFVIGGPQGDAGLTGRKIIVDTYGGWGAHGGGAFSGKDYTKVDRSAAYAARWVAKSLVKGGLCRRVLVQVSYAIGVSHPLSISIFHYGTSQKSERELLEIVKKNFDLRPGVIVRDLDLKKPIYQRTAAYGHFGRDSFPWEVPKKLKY
Summary of the method: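 Baculovirus/Sf9-expressed, Ni-purified MAT2A at 4 μg/mL in pH 8.0 Tris/KCl/MgCl2/EDTA/BSA buffer, preincubated with compound 60 min at 25 °C. Started with ATP and L-methionine substrate mix (500 μM and 40 μM, stock in mix), 60 min at 25 °C; released phosphate by PiColorLock Gold against a phosphate standard curve.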

HCT116 MTAP +/+ = test: Inhibition of cellular proliferation, 4 days, Cell Titer Glo, HCT116 MTAP+/+; assay type: cell-based; conditions: Homo sapiens, HCT-116, 96 h, IC50 score, read-out: 4 Day Relative Growth Inhibition (MTAP +/+)
Summary of the method: (§1)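 Isogenic human colon carcinoma lines differing only in MTAP status, plated 24 h before dosing, then exposed for 4 days at 37 °C/5% CO2 to a 10-point 3-fold dilution series (0.2% DMSO final). Read-out is Cell Titer Glo ATP luminescence, blank-subtracted and normalised to in-plate DMSO control, plotted as % proliferation change versus log molar concentration.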

HCT116 MTAP-/- = test: Inhibition of cellular proliferation, 4 days, Cell Titer Glo, HCT116 MTAP-/-; assay type: cell-based; conditions: Homo sapiens, HCT-116, 96 h, IC50 score, read-out: 4 Day Relative Growth Inhibition (MTAP −/−)
Summary of the method: as §1

Row | Structure (SMILES) | IC50 [1] | IC50 (MAT2A homodimer) | IC50 (HCT116 MTAP +/+) | IC50 (HCT116 MTAP-/-)
1 | CCOc1ccc2cc(-c3ccc(OC)cc3)c(=O)n(-c3ccc(C4CC4)nc3)c2n1 [Example 162] | 100 to 1000 nM | < 100 nM | ≥ 1000 nM | 100 to 1000 nM
2 | CCOc1ccc2cc(-c3ccc(OC)cc3)c(=O)n(-c3ccc(OC(F)F)cc3)c2n1 [Example 139] | < 100 nM | < 100 nM | ≥ 1000 nM | 100 to 1000 nM
3 | CCOc1ccc2cc(-c3ccc4nnn(C)c4c3)c(=O)n(-c3ccc(OC(F)F)cc3)c2n1 [Example 209] | < 100 nM | < 100 nM | 100 to 1000 nM | < 100 nM
4 | COc1ccc(-n2c(=O)c(-c3ccc4c(c3)CCO4)cc3cnc(NCC(F)(F)F)nc32)cc1 [Example 173] | < 100 nM | < 100 nM | ≥ 1000 nM | < 100 nM
5 | CCOc1ccc2cc(-c3ccc4nn(C)cc4c3)c(=O)n(-c3ccc(OC(F)F)nc3)c2n1 [Example 155] | < 100 nM | < 100 nM | ≥ 1000 nM | < 100 nM
6 | Cn1cc2cc(-c3cc4ccc(OCC(F)F)nc4n(-c4ccc(C5CC5)nc4)c3=O)ccc2n1 [Example 168] | < 100 nM | < 100 nM | ≥ 1000 nM | < 100 nM
7 | COc1ccc(-n2c(=O)c(-c3cn[nH]c3)cc3cnc(NCC(F)(F)F)nc32)cc1 [Example 183] | 100 to 1000 nM | < 100 nM | ≥ 1000 nM | ≥ 1000 nM

The remaining lines, values ahead:

Row | IC50 [1] | IC50 (MAT2A homodimer) | IC50 (HCT116 MTAP +/+) | IC50 (HCT116 MTAP-/-) | Structure (SMILES)
8 | < 100 nM | < 100 nM | ≥ 1000 nM | < 100 nM | COc1ccc(-c2cc3ccc(NCC(F)(F)F)nc3n(-c3ccc(OC)cc3)c2=O)cc1 [Example 131]
9 | < 100 nM | < 100 nM | ≥ 1000 nM | < 100 nM | CCOc1cc(C)c2cc(-c3ccc4nn(C)cc4c3)c(=O)n(-c3ccc(Cl)cc3)c2n1 [Example 164]
10 | < 100 nM | < 100 nM | 100 to 1000 nM | < 100 nM | Cn1cc2cc(-c3cc4ccc(OCC(F)(F)F)nc4n(-c4ccc(N)nc4)c3=O)ccc2n1 [Example 320]
11 | < 100 nM | < 100 nM | 100 to 1000 nM | < 100 nM | CCOc1ccc2nc(-c3ccc4nn(C)cc4c3)c(=O)n(-c3ccc(OC(F)F)cc3)c2n1 [Example 224]
12 | < 100 nM | < 100 nM | ≥ 1000 nM | 100 to 1000 nM | COc1ccc(-n2c(=O)c(-c3ccc4nn(CCN)cc4c3)nc3ccc(OCC(F)(F)F)nc32)cc1 [Example 347, 2-(2-(2-aminoethyl)-2H-indazol-5-yl)-4-(4-methoxyphenyl)-6-(2,2,2-trifluoroethoxy)pyrido[2,3-b]pyrazin-3(4H)-one]
13 | < 100 nM | < 100 nM | ≥ 1000 nM | < 100 nM | CNc1ccc(-n2c(=O)c(-c3ccc4nn(C)cc4c3)nc3ccc(OCC(F)(F)F)nc32)cn1 [Example 348, 2-(2-methyl-2H-indazol-5-yl)-4-(6-(methylamino)pyridin-3-yl)-6-(2,2,2-trifluoroethoxy)pyrido[2,3-b]pyrazin-3(4H)-one]
14 | < 100 nM | < 100 nM | ≥ 1000 nM | < 100 nM | Cn1cc2cc(-c3nc4ccc(OCC(F)(F)F)nc4n(-c4ccc(Br)cc4)c3=O)ccc2n1 [Example 346, 4-(4-bromophenyl)-2-(2-methyl-2H-indazol-5-yl)-6-(2,2,2-trifluoroethoxy)pyrido[2,3-b]pyrazin-3(4H)-one]
15 | < 100 nM | < 100 nM | ≥ 1000 nM | < 100 nM | Cn1cc2cc(-c3cc4ccc(OCC(F)(F)F)nc4n(-c4ccc(C5CC5)cc4)c3=O)ccc2n1 [Example 314]
16 | < 100 nM | < 100 nM | ≥ 1000 nM | < 100 nM | Cn1cc2cc(-c3nc4ccc(NCC(F)(F)F)nc4n(-c4ccc(Cl)cc4)c3=O)ccc2n1 [Example 226]
